# Assay results from patent publication US20250277012A1 (Protagonist Therapeutics, Inc., priority 2021, published 2025).
# Starred links: 1 amine or outer side, 2 acyl side, 3 side chain; linkers in the order of their positions; H or OH if unused. Positions of bridges follow the written chain, without caps; N, C: chain ends. Non-standard residues stand in square brackets, D forms with d. Residues, ends and D or L forms follow the SMILES beside them. Groups on a side chain read outwards from the residue. *: point of attachment. X1 = C[N+](C)(CCNC(=O)CCCCCCCCCCCCCCCCC(=O)O)CC(=O)*; Trp(6-OMe) = COc1ccc2c(C[C@H](N)C(=O)O)c[nH]c2c1; Bip = N[C@@H](Cc1ccc(-c2ccccc2)cc1)C(=O)O; C18 diacid = O=C(O)CCCCCCCCCCCCCCCCC(=O)*; Lys(Me3) = C[N+](C)(C)CCCC[C@H](N)C(=O)O; Dip = N[C@H](C(=O)O)C(c1ccccc1)c1ccccc1; γGlu = O=C(O)[C@H](CCC(=O)[*:2])N[*:1]; Palmitoyl = CCCCCCCCCCCCCCCC(=O)*; NMeF = CN[C@@H](Cc1ccccc1)C(=O)O; NMeT = CN[C@H](C(=O)O)[C@@H](C)O; β3hF = N[C@H](CC(=O)O)Cc1ccccc1; dPen = CC(C)(S)[C@@H](N)C(=O)O; NMeK = CN[C@@H](CCCCN)C(=O)O; Pen = CC(C)(S)[C@H](N)C(=O)O; Isovaleryl = CC(C)CC(=O)*; hCys = N[C@@H](CCS)C(=O)O; Dap = NC[C@H](N)C(=O)O; AEEA = NCCOCCOCC(=O)O; Ahx = NCCCCCC(=O)O
# Molecular target: T1, ferroportin (Homo sapiens, UniProt Q9NP59)
# T1 sequence (Q9NP59 1-571): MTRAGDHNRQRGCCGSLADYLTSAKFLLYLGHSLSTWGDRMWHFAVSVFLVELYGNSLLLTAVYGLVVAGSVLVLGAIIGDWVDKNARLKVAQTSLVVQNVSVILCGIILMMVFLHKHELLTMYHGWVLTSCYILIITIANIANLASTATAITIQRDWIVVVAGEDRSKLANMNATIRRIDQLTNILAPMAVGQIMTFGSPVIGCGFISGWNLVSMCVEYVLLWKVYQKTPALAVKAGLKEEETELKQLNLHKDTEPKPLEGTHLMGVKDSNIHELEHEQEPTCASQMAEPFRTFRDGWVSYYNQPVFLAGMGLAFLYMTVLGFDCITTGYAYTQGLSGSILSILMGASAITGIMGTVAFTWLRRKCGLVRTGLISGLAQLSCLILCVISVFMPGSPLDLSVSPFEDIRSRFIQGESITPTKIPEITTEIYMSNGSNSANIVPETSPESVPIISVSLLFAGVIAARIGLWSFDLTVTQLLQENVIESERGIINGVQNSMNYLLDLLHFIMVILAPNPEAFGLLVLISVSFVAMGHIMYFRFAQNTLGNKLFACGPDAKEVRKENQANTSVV
# Assay: FPN activity assay: ferroportin-GFP internalization/degradation in HEK293 cells
# Assay type: cell-based
# Parameters: expressed in transfected cells
# Details: Table 6E; ferroportin-GFP internalization/degradation, at least 18 hours incubation; read-out: FPN IC50
# Experimental: Following internalization, the ferroporin protein is degraded.
# A retro inverse peptide is a peptide with a reversed sequence in all D amino acids. An example is that Hy-Glu-Thr-His-NH2 becomes Hy-DHis-DThr-DGlu-NH2. The EC50 of these reference compounds for ferroportin internalization/degradation was determined according to the FPN activity assay described above. These peptides served as control standards.
row,DC50 [µM],SMILES
1,> 0.5,COC(=O)CC[C@H](NC(=O)CC(C)C)C(=O)N(C)[C@H](C(=O)N[C@@H](Cc1c[nH]cn1)C(=O)N[C@H](C(=O)N1CCC[C@H]1C(=O)N[C@H]1CSSC[C@@H](C(=O)N(C)[C@@H](CCCCNC(=O)C[N+](C)(C)CCNC(=O)CCCCCCCCCCCCCCCCC(=O)O)C(=O)N(C)[C@@H](Cc2ccccc2)C(N)=O)NC1=O)C(c1ccccc1)c1ccccc1)[C@@H](C)O [compound 185] (Isovaleryl-E(OMe)[NMeT]H[Dip]PCC[NMeK](X1)[NMeF]-NH2; disulfide 6-7)
2,0.01 to 0.1,CC(C)CC(=O)N[C@@H](CCC(=O)O)C(=O)N[C@H](C(=O)N[C@@H](Cc1c[nH]cn1)C(=O)N[C@H](C(=O)N1CCC[C@H]1C(=O)N[C@H]1CSSC[C@@H](C(=O)N[C@@H](CCCC[N+](C)(C)C)C(=O)N[C@H](C(N)=O)C(c2ccccc2)c2ccccc2)NC1=O)C(c1ccccc1)c1ccccc1)[C@@H](C)O [compound 141] (Isovaleryl-ETH[Dip]PCC[Lys(Me3)][Dip]-NH2; disulfide 6-7)

# Same assay, conditions: ferroportin-GFP HEK293 cells, at least 18 hours; read-out: FPN IC50
row,SMILES,DC50 [µM]
1,CCCCCCCCCCCCCCCC(=O)NCCCCCC(=O)NCCCC[C@H](NC(=O)C[C@H](Cc1ccccc1)NC(=O)[C@@H]1CSSC[C@H](NC(=O)[C@@H]2CCCN2C(=O)[C@@H](NC(=O)[C@H](Cc2c[nH]cn2)NC(=O)[C@@H](NC(=O)[C@H](CCC(=O)O)NC(=O)CC(C)C)[C@@H](C)O)C(c2ccccc2)c2ccccc2)C(=O)N[C@@H]([C@@H](C)CC)C(=O)N1)C(=O)N[C@H](CCCCN)C(N)=O [Compd 8] (Isovaleryl-ETH[Dip]PCIC[β3hF]K([Ahx-Palmitoyl])[dK]-NH2; disulfide 6-8),0.1 to 0.5
2,CC(C)CC(=O)N[C@@H](CCC(=O)O)C(=O)N[C@H](C(=O)N[C@@H](Cc1c[nH]cn1)C(=O)N[C@H](C(=O)N1CCC[C@H]1C(=O)N[C@H]1CSSC[C@@H](C(=O)N[C@H](CCCCN)C(=O)N[C@H](CC(=O)N[C@@H](CCCCNC(=O)COCCOCCNC(=O)COCCOCCNC(=O)CC[C@H](NC(=O)CCCCCCCCCCCCCCCCC(=O)O)C(=O)O)C(=O)N[C@H](CCCCN)C(N)=O)Cc2ccccc2)NC1=O)C(c1ccccc1)c1ccccc1)[C@@H](C)O [Compd 28] (Isovaleryl-ETH[Dip]PCC[dK][β3hF]K([AEEA-AEEA-γGlu-C18 diacid])[dK]-NH2; disulfide 6-7),0.1 to 0.5
3,CCCCCCCCCCCCCCCC(=O)NCCCCCC(=O)NCCCC[C@H](NC(=O)[C@@H](NC(=O)[C@@H]1CSSC(C)(C)[C@H](N)C(=O)N[C@@H](CCC(=O)O)C(=O)N[C@@H]([C@@H](C)O)C(=O)N[C@@H](Cc2c[nH]cn2)C(=O)N[C@@H](C(c2ccccc2)c2ccccc2)C(=O)N2CCC[C@H]2C(=O)N1)[C@@H](C)CC)C(=O)N[C@H](CC(N)=O)Cc1ccccc1 [Compd 11] (H-[Pen]ETH[Dip]PCIK([Ahx-Palmitoyl])[β3hF]-NH2; disulfide 1-7),> 0.5
4,CCCCCCCCCCCCCCCC(=O)NCCCCCC(=O)NCCCC[C@H](NC(=O)[C@@H](NC(=O)[C@@H]1CSSCC[C@H](NC(=O)CC(C)C)C(=O)N[C@@H](CCC(=O)O)C(=O)N[C@@H]([C@@H](C)O)C(=O)N[C@@H](Cc2c[nH]cn2)C(=O)N[C@@H](C(c2ccccc2)c2ccccc2)C(=O)N2CCC[C@H]2C(=O)N1)[C@@H](C)CC)C(=O)N[C@H](CC(N)=O)Cc1ccccc1 [Compd 13] (Isovaleryl-[hCys]ETH[Dip]PCIK([Ahx-Palmitoyl])[β3hF]-NH2; disulfide 1-7),0.1 to 0.5

# Other lines, results leading:
row,DC50 [µM],SMILES
1,0.01 to 0.1,CCCCCCCCCCCCCCCC(=O)N[C@@H](CCC(=O)NCCCC[C@H](NC(=O)[C@@H](NC(=O)[C@@H]1CSSC[C@H](NC(=O)[C@@H]2CCCN2C(=O)[C@H](Cc2ccccc2)NC(=O)[C@H](Cc2c[nH]cn2)NC(=O)[C@@H](NC(=O)[C@H](CC(=O)O)NC(=O)CC(C)C)[C@@H](C)O)C(=O)N1)[C@@H](C)CC)C(=O)N[C@@H](Cc1ccccc1)C(=O)N[C@@H](CCC(=O)O)C(=O)N1CCC[C@H]1C(=O)N[C@@H](CCCNC(=N)N)C(=O)O)C(=O)O [Compd 101] (Isovaleryl-DTHFPCCIK([γGlu-Palmitoyl])FEPR-OH; disulfide 6-7)
2,0.1 to 0.5,CCCCCCCCCCCCCCCC(=O)NCCCCCC(=O)NCCCC[C@H](NC(=O)[C@@H](NC(=O)[C@@H]1CCSSC[C@H](N)C(=O)N[C@@H](C(C)C)C(=O)N[C@@H](CCC(=O)O)C(=O)N[C@@H]([C@@H](C)O)C(=O)N[C@@H](Cc2c[nH]cn2)C(=O)N[C@@H](C(c2ccccc2)c2ccccc2)C(=O)N2CCC[C@H]2C(=O)N1)[C@@H](C)CC)C(=O)N[C@H](CC(N)=O)Cc1ccccc1 [Compd 17] (H-CVETH[Dip]P[hCys]IK([Ahx-Palmitoyl])[β3hF]-NH2; disulfide 1-8)
3,0.1 to 0.5,CCCCCCCCCCCCCCCC(=O)NCCCCCC(=O)NCCCC[C@H](NC(=O)C[C@H](Cc1ccccc1)NC(=O)[C@@H]1CSSC(C)(C)[C@@H](NC(=O)CC(C)C)C(=O)N[C@@H]([C@@H](C)O)C(=O)N[C@@H](Cc2c[nH]cn2)C(=O)N[C@@H](C(c2ccccc2)c2ccccc2)C(=O)N2CCC[C@H]2C(=O)N[C@@H](C)C(=O)N[C@@H]([C@@H](C)CC)C(=O)N1)C(=O)N[C@H](CCCCN)C(N)=O [compound 103] (Isovaleryl-[dPen]TH[Dip]PAIC[β3hF]K([Ahx-Palmitoyl])[dK]-NH2; disulfide 1-8)
4,0.01 to 0.1,CCCCCCCCCCCCCCCC(=O)NCCCCCC(=O)NCCCC[C@H](NC(=O)C[C@H](Cc1ccccc1)NC(=O)[C@@H](CCCCN)NC(=O)[C@@H]1CSSC[C@H](NC(=O)[C@@H]2CCCN2C(=O)[C@@H](NC(=O)[C@H](Cc2c[nH]cn2)NC(=O)[C@@H](NC(=O)[C@H](CCC(=O)O)NC(=O)CC(C)C)[C@@H](C)O)C(c2ccccc2)c2ccccc2)C(=O)N1)C(=O)N[C@H](CCCCN)C(N)=O [Compd 6] (Isovaleryl-ETH[Dip]PCC[dK][β3hF]K([Ahx-Palmitoyl])[dK]-NH2; disulfide 6-7)
5,0.01 to 0.1,CCCCCCCCCCCCCCCC(=O)NCCCCCC(=O)NCCCC[C@H](NC(=O)C[C@H](Cc1ccccc1)NC(=O)[C@@H]1CSSC[C@H](NC(=O)[C@@H]2CCCN2C(=O)[C@@H](NC(=O)[C@H](Cc2c[nH]cn2)NC(=O)[C@@H](NC(=O)[C@H](CCC(=O)O)NC(=O)CC(C)C)[C@@H](C)O)C(c2ccccc2)c2ccccc2)C(=O)N[C@@H]([C@@H](C)CC)C(=O)N1)C(=O)N[C@H](CCCCN)C(N)=O [Compd 7] (Isovaleryl-ETH[Dip]PCIC[β3hF]K([Ahx-Palmitoyl])[dK]-NH2; disulfide 6-8)
6,0.01 to 0.1,CC(C)CC(=O)N[C@@H](CCC(=O)O)C(=O)N[C@H](C(=O)N[C@@H](Cc1c[nH]cn1)C(=O)N[C@H](C(=O)N1CCC[C@H]1C(=O)N[C@H]1CSSC[C@@H](C(=O)N[C@H](CCCCN)C(=O)N[C@H](CC(=O)N[C@@H](CCCCNC(=O)COCCOCCNC(=O)COCCOCCNC(=O)CCCCCNC(=O)CCCCCCCCCCCCCCCCC(=O)O)C(=O)N[C@H](CCCCN)C(N)=O)Cc2ccccc2)NC1=O)C(c1ccccc1)c1ccccc1)[C@@H](C)O [Compd 26] (Isovaleryl-ETH[Dip]PCC[dK][β3hF]K([AEEA-AEEA-Ahx-C18 diacid])[dK]-NH2; disulfide 6-7)
7,0.01 to 0.1,CCCCCCCCCCCCCCCC(=O)NCCCCCC(=O)NCCCC[C@H](NC(=O)C[C@H](Cc1ccccc1)NC(=O)[C@@H]1CSSC[C@@H](NC(=O)CC(C)C)C(=O)N[C@@H]([C@@H](C)O)C(=O)N[C@@H](Cc2c[nH]cn2)C(=O)N[C@@H](C(c2ccccc2)c2ccccc2)C(=O)N2CCC[C@H]2C(=O)N[C@@H](C)C(=O)N[C@@H]([C@@H](C)CC)C(=O)N1)C(=O)N[C@H](CCCCN)C(N)=O [compound 107] (Isovaleryl-[dC]TH[Dip]PAIC[β3hF]K([Ahx-Palmitoyl])[dK]-NH2; disulfide 1-8)

# Same assay, conditions: ferroportin-GFP internalization/degradation, HEK293 cells; Table 6E; read-out: FPN IC50
row,DC50 [µM],SMILES
1,> 0.5,CC(C)CC(=O)N[C@@H](CCC(=O)O)C(=O)N[C@H](C(=O)N[C@@H](Cc1ccc(-c2ccccc2)cc1)C(=O)N[C@H](C(=O)N1CCC[C@H]1C(=O)N[C@H]1CSSC[C@@H](C(=O)N(C)[C@@H](CCCCNC(=O)COCCOCCNC(=O)COCCOCCNC(=O)[C@H](CN)NC(=O)CCCCCCCCCCCCCCCCC(=O)O)C(=O)N[C@H](CC(=O)N[C@H](CCCCN)C(N)=O)Cc2ccccc2)NC1=O)C(c1ccccc1)c1ccccc1)[C@@H](C)O [compound 297] (Isovaleryl-ET[Bip][Dip]PCC[NMeK]([AEEA-AEEA-Dap-C18 diacid])[β3hF][dK]-NH2; disulfide 6-7)
2,> 0.5,COc1ccc2c(C[C@H](NC(=O)[C@@H](NC(=O)[C@H](CCC(=O)O)NC(=O)CC(C)C)[C@@H](C)O)C(=O)N[C@H](C(=O)N3CCC[C@H]3C(=O)N[C@H]3CSSC[C@@H](C(=O)N(C)[C@@H](CCCCNC(=O)COCCOCCNC(=O)COCCOCCNC(=O)[C@H](CN)NC(=O)CCCCCCCCCCCCCCCCC(=O)O)C(=O)N[C@H](CC(=O)N[C@H](CCCCN)C(N)=O)Cc4ccccc4)NC3=O)C(c3ccccc3)c3ccccc3)c[nH]c2c1 [compound 287] (Isovaleryl-ET[Trp(6-OMe)][Dip]PCC[NMeK]([AEEA-AEEA-Dap-C18 diacid])[β3hF][dK]-NH2; disulfide 6-7)
